MIC50 data for three molecules are collected here from ChEMBL document CHEMBL1127654, “An epimer of 5'-noraristeromycin and its antiviral properties” (1994).

For experiment [1], the system named is MT4. As to the kind of experiment: Minimal inhibitory concentration (MIC) required to reduce HIV-2 in MT-4 cells. It counts as functional. The settings on record: Homo sapiens.
The subject of experiment [2] is E6SM. As to the kind of experiment: cells. The settings on record: Homo sapiens.
The subject of experiment [3] is Vero. Briefly: Minimal inhibitory concentration (MIC) required to reduce forest virus in Vero cells. It is filed as functional. The settings on record: Chlorocebus sabaeus.
The test system of experiment [4] is HEL. As to the kind of experiment: Minimal inhibitory concentration (MIC) required to reduce VZV (YS) in HEL cells. It is filed as functional. The settings on record: Homo sapiens.
Experiment [5] has as its system MDCK. As to the kind of experiment: Minimal inhibitory concentration (MIC) required to reduce Influenza B in MDCK cells. It is filed as functional. Conditions: Canis lupus familiaris.
Experiment [6] concerns E6SM. Briefly: Minimal inhibitory concentration (MIC) required to reduce HSV(herpes simplex virus)-1 (KOS) cytopathicity in E6SM cells. It is filed as functional. Conditions: Homo sapiens. Background: Damage to the host cells serves as the signal in cytopathic effect assays.
Experiment [7] has as its system HEL. Briefly: Minimal inhibitory concentration (MIC) required to reduce VZV (varicella zoster virus) (OKA) in HEL cells. It is filed as functional. Conditions: Homo sapiens.
Experiment [8] deals with E6SM. As to the kind of experiment: Minimal inhibitory concentration (MIC) required to reduce TK(Thymidine kinase)-HSV-1 (B2006) cytopathicity in E6SM cells. It counts as functional. The settings on record: Homo sapiens.
For experiment [9], the system named is E6SM. As to the kind of experiment: Minimal inhibitory concentration (MIC) required to reduce HSV(herpes simplex virus)-2 cytopathicity E6SM cells. The settings on record: Homo sapiens. It is filed as functional.
In experiment [10] the test system is Vero. As to the kind of experiment: Minimal inhibitory concentration (MIC) required to reduce Tacaribe virus in Vero cells. It counts as functional. The settings on record: Chlorocebus sabaeus.
Experiment [11] has as its system Vero. As to the kind of experiment: Minimal inhibitory concentration (MIC) required to reduce Junin virus in Vero cells. The settings on record: Chlorocebus sabaeus. It counts as functional.
In experiment [12] the test system is Vero. As to the kind of experiment: Minimal inhibitory concentration (MIC) required to reduce Parainfluenza-3 virus in Vero cells. It is filed as functional. Conditions: Chlorocebus sabaeus.
The test system of experiment [13] is HEL. Briefly: Minimal inhibitory concentration (MIC) required to reduce CMV (cytomegalo virus) (AD-169) in HEL cells. It is filed as functional, Homo sapiens.
Experiment [14] concerns E6SM. Briefly: Minimal inhibitory concentration (MIC) required to reduce TK-HSV-1 (VMW 1837) cytopathicity in E6SM cells. It counts as functional. The settings on record: Homo sapiens.
For experiment [15], the system named is Vero. Briefly: Minimal inhibitory concentration (MIC) required to reduce Sindbis in virus in Vero cells. Conditions: Chlorocebus sabaeus. It is filed as functional.
In experiment [16] the test system is E6SM. As to the kind of experiment: cells. Conditions: Homo sapiens. The source holds these as a separate data set.
The subject of experiment [17] is MT4. Briefly: Minimal inhibitory concentration (MIC) required to reduce HIV(human immunodeficiency virus)-1 in MT-4 cells. It counts as functional.
Experiment [18] deals with HeLa. Briefly: Minimal inhibitory concentration (MIC) required to reduce VSV in HeLa cells. It is filed as functional. Conditions: Homo sapiens.
Experiment [19] deals with Vero. Briefly: Minimal inhibitory concentration (MIC) required to reduce Reovirus-1 in Vero cells. Conditions: Chlorocebus sabaeus. It is filed as functional.
Experiment [20] deals with HeLa. Briefly: Minimal inhibitory concentration (MIC) required to reduce Polio-1 in HeLa cells. The settings on record: Homo sapiens. It is filed as functional.
For experiment [21], the system named is MDCK. As to the kind of experiment: Minimal inhibitory concentration (MIC) required to reduce Influenza A virus in MDCK cells. It is filed as functional. Conditions: Canis lupus familiaris.
Experiment [22] has as its system HEL. As to the kind of experiment: Minimal inhibitory concentration (MIC) required to reduce CMV (Davis) in HEL cells. It counts as functional. The settings on record: Homo sapiens.
The test system of experiment [23] is HeLa. As to the kind of experiment: Minimal inhibitory concentration (MIC) required to reduce coxsackie B4 in HeLa cells. It counts as functional. Conditions: Homo sapiens.
In experiment [24] the test system is Respiratory syncytial virus. Briefly: Minimal inhibitory concentration (MIC) required to reduce RSV (long) in HeLa cells. It counts as functional. The settings on record: human respiratory syncytial virus.
Experiment [25] concerns MDCK. Briefly: Minimal inhibitory concentration (MIC) required to reduce Influenza B virus in MDCK cells. It counts as functional. The settings on record: Canis lupus familiaris.

≈ marks a conversion by molar mass, not a printed value.

Turning to `Nc1ncnc2c1ncn2[C@@H]1C[C@@H](O)[C@@H](O)[C@H]1O`, the MIC50 is over 0.8 µg/mL in the experiment with MT4 [1]; 0.1 µg/mL (≈ 0.398 µM) in the experiment on E6SM [2]; over 200 µg/mL with Vero [3]; 1 µg/mL (≈ 3.98 µM) against HEL [4]; over 200 µg/mL against MDCK [5]; over 300 µg/mL in the experiment on E6SM [6]. The MIC50 against HEL [7] is 6 µg/mL (≈ 23.9 µM); with E6SM [8] it was 200 µg/mL (≈ 796 µM); in the experiment with E6SM [9] it was 300 µg/mL (≈ 1190 µM); against Vero [10], 27 µg/mL (≈ 107 µM); in the experiment on Vero [11] it was 30 µg/mL (≈ 119 µM); against Vero [12], 0.04 µg/mL (≈ 0.159 µM). Further, the MIC50 in the experiment on HEL [13] (Homo sapiens, read-out: MIC50) was 5 µg/mL (≈ 19.9 µM); against E6SM [14], 200 µg/mL (≈ 796 µM); in the experiment with Vero [15], over 200 µg/mL; in the experiment on E6SM [16], 0.2 µg/mL (≈ 0.796 µM); with MT4 [17] it was over 0.8 µg/mL; in the experiment on HeLa [18], over 0.2 µg/mL. Besides, the MIC50 was 0.3 µg/mL (≈ 1.19 µM) with Vero [19]; over 400 µg/mL against HeLa [20]; over 200 µg/mL in the experiment on MDCK [21]; 3 µg/mL (≈ 11.9 µM) against HEL [22]; over 400 µg/mL against HeLa [23]; 100 µg/mL (≈ 398 µM) in [24].
In the case of `Nc1nccc2c1ncn2[C@@H]1C[C@H](CO)[C@@H](O)[C@H]1O` [3-DEAZAARISTEROMYCIN A], the MIC50 with MDCK [25] was over 30 µg/mL; with E6SM [2] it was 1 µg/mL (≈ 3.78 µM); against Vero [3] it was over 400 µg/mL; in the experiment on HEL [4], over 40 µg/mL; against E6SM [6] it was over 400 µg/mL; in the experiment with HEL [7] it was over 40 µg/mL. The MIC50 in the experiment with E6SM [8] was over 400 µg/mL; against E6SM [9] it was over 400 µg/mL; in the experiment with Vero [10], 7 µg/mL (≈ 26.5 µM); with Vero [11] it was 7 µg/mL (≈ 26.5 µM); against Vero [12], over 1 µg/mL; in the experiment with HEL [13], 7 µg/mL (≈ 26.5 µM). Also, the MIC50 was over 7 µg/mL in the experiment on HEL [13] (Homo sapiens, read-out: MIC50); over 400 µg/mL against E6SM [14]; 4 µg/mL (≈ 15.1 µM) against Vero [15]; 1 µg/mL (≈ 3.78 µM) against E6SM [16]; over 7 µg/mL against HeLa [18]; 2 µg/mL (≈ 7.57 µM) against Vero [19]. The MIC50 in the experiment with HeLa [20] is over 400 µg/mL; against MDCK [21] it was over 100 µg/mL; in the experiment with HeLa [23] it was over 400 µg/mL; in [24], 100 µg/mL (≈ 378 µM).
In the case of `Nc1ncnc2c1ncn2[C@@H]1C=C(CO)[C@@H](O)[C@H]1O` [NEOPLANOCIN A], the MIC50 was over 3 µg/mL with MDCK [25]; 0.2 µg/mL (≈ 0.76 µM) against E6SM [2]; 7 µg/mL (≈ 26.6 µM) with Vero [3]; 1 µg/mL (≈ 3.8 µM) in the experiment on HEL [4]; 70 µg/mL (≈ 266 µM) against E6SM [6]; 6 µg/mL (≈ 22.8 µM) against HEL [7]. For the same molecule, the MIC50 in the experiment with E6SM [8] is 20 µg/mL (≈ 76 µM); against E6SM [9], over 100 µg/mL; against Vero [10], 1 µg/mL (≈ 3.8 µM); in the experiment with Vero [11], 1 µg/mL (≈ 3.8 µM); in the experiment on Vero [12], 0.2 µg/mL (≈ 0.76 µM); with HEL [13], 0.4 µg/mL (≈ 1.52 µM). Besides, the MIC50 in the experiment on HEL [13] (Homo sapiens, read-out: MIC50) came out at 0.6 µg/mL (≈ 2.28 µM); against E6SM [14], 70 µg/mL (≈ 266 µM); against Vero [15], 2 µg/mL (≈ 7.6 µM); with E6SM [16], 2 µg/mL (≈ 7.6 µM); against HeLa [18], 2 µg/mL (≈ 7.6 µM); with Vero [19], 0.7 µg/mL (≈ 2.66 µM). Further, the MIC50 in the experiment on HeLa [20] is over 40 µg/mL; against MDCK [21], 1 µg/mL (≈ 3.8 µM); against HeLa [23], over 40 µg/mL; in experiment [24], over 1 µg/mL.
